Key:
[1] = target: Dual specificity protein kinase CLK2 (Homo sapiens, UniProt P49760); experiment: Selectivity screening
Experimental: (§1) The IC50 values of selected kinases were determined using either Z'LYTE, Adapta or LanthaScreen assays.

[2] = target: Mitogen-activated protein kinase 9 (Homo sapiens, UniProt P45984); experiment: Selectivity screening
Experimental: as §1

[3] = target: T1, Serine/threonine-protein kinase D1 (Homo sapiens, UniProt Q15139); experiment: Selectivity screening
T1 sequence (Q15139 whole entry): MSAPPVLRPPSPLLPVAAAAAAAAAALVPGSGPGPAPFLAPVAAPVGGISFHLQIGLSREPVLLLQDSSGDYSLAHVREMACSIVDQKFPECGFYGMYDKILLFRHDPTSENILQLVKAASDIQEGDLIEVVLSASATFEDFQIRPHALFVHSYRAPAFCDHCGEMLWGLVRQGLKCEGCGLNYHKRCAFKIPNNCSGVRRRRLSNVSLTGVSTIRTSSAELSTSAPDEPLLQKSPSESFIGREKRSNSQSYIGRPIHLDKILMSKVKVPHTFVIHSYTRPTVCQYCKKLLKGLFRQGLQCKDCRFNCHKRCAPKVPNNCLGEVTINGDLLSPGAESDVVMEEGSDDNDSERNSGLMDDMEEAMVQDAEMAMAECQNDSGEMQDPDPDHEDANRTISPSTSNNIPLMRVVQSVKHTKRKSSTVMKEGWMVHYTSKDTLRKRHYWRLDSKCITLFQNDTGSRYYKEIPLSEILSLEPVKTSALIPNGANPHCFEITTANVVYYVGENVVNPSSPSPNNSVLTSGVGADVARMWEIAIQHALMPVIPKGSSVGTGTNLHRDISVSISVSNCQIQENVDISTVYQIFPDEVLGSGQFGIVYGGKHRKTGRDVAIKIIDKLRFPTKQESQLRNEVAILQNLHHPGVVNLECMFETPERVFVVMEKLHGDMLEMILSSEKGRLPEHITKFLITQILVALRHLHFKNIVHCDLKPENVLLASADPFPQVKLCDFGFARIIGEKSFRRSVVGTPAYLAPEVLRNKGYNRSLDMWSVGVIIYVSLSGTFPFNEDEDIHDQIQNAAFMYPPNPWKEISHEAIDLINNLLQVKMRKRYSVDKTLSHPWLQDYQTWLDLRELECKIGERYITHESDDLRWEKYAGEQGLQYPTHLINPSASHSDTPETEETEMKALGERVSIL
Experimental: as §1

[4] = target: T2, Mitogen-activated protein kinase 3 (Homo sapiens, UniProt P27361); experiment: Selectivity screening
T2 sequence (P27361 whole entry): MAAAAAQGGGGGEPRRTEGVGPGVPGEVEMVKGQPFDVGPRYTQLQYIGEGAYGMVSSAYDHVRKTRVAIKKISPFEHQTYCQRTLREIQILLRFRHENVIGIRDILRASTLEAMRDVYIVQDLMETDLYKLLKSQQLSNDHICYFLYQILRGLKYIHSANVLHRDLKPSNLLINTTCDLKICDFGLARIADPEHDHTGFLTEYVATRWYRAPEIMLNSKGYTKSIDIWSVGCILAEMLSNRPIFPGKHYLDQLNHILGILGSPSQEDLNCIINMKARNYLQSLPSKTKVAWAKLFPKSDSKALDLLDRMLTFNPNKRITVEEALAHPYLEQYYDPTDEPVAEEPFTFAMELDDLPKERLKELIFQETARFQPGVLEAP
Experimental: as §1

[5] = target: T3, Dual specificity protein kinase TTK (Homo sapiens, UniProt P33981); experiment: Selectivity screening
T3 sequence (P33981 whole entry): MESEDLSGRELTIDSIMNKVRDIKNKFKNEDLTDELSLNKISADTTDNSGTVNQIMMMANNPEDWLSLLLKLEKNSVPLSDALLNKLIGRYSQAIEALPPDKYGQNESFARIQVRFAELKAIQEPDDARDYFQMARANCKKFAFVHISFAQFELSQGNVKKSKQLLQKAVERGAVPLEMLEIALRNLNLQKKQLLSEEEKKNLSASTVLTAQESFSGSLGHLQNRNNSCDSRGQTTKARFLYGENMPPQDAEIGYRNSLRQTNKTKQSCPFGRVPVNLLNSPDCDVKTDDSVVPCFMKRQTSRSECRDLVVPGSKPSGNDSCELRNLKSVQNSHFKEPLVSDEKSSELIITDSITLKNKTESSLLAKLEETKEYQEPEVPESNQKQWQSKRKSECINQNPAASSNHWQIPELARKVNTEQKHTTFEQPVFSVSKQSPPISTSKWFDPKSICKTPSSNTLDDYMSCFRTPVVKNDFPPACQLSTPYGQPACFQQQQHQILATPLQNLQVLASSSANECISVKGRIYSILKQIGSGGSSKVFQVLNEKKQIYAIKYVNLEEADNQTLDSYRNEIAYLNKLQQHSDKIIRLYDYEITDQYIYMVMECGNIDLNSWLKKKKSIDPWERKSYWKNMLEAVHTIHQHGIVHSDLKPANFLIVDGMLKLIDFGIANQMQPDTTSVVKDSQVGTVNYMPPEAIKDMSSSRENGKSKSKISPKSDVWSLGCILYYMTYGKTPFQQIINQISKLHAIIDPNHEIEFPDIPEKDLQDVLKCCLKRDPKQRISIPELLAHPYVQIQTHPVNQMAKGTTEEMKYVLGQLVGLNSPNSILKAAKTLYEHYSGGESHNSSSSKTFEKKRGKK
Experimental: as §1

[6] = target: T4, Mitogen-activated protein kinase 8 [1-363] (Homo sapiens, UniProt P45983); experiment: Selectivity screening
T4 construct: 1-363
T4 sequence (P45983 1-363): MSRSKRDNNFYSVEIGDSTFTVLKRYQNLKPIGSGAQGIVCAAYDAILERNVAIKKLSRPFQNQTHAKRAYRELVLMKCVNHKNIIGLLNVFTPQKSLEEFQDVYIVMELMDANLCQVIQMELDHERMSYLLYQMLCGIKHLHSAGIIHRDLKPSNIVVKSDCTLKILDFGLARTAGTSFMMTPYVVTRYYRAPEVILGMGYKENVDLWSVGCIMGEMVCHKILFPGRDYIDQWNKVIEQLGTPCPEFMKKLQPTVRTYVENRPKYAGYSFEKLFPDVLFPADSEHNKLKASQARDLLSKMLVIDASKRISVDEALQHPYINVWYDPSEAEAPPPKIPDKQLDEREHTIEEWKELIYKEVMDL
Experimental: as §1

[7] = target: T5, Dual specificity mitogen-activated protein kinase kinase 3 (Homo sapiens, UniProt P46734); experiment: Selectivity screening
T5 sequence (P46734 whole entry): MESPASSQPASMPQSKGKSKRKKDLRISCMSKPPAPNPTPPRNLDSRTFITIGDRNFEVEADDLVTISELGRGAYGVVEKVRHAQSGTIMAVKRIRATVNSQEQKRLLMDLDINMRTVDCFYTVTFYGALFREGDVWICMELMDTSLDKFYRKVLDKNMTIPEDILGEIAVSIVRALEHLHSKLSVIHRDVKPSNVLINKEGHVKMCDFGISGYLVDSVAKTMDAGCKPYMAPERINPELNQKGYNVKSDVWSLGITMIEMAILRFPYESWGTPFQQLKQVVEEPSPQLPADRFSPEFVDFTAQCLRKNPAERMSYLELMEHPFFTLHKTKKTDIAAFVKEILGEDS
Experimental: as §1

[8] = target: Mitogen-activated protein kinase 10 (Homo sapiens, UniProt P53779); experiment: Selectivity screening
Chain of Mitogen-activated protein kinase 10 (P53779 whole entry): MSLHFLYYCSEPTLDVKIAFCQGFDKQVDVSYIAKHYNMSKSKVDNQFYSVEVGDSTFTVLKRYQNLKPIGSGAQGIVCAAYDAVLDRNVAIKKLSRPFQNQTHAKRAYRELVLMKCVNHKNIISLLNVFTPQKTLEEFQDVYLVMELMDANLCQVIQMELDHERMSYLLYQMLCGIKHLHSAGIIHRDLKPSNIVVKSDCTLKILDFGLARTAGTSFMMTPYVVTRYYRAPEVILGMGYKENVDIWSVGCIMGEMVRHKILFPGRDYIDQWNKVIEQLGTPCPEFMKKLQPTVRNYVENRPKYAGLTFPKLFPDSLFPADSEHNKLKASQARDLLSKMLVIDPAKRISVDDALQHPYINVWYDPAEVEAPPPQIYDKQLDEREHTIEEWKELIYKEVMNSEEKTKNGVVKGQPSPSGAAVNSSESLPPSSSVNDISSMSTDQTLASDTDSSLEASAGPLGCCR
Experimental: as §1

[9] = target: Dual specificity protein kinase CLK1 (Homo sapiens, UniProt P49759); experiment: Selectivity screening
Chain of Dual specificity protein kinase CLK1 (P49759 whole entry): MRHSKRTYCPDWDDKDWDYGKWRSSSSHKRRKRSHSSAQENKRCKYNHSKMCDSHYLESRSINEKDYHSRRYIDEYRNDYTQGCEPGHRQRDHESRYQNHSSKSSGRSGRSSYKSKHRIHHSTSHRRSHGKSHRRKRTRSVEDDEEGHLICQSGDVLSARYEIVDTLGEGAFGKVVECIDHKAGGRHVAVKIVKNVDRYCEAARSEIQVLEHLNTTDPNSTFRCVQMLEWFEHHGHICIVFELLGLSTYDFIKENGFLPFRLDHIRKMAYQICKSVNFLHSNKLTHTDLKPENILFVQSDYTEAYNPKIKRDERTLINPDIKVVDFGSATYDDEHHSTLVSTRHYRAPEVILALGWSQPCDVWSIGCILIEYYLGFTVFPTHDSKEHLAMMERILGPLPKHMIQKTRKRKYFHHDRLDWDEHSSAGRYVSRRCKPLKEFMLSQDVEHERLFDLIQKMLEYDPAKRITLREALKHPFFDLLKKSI
Experimental: as §1

[10] = target: T6, Serine/threonine-protein kinase haspin [465-798] (Homo sapiens, UniProt Q8TF76); experiment: Selectivity screening
T6 construct: 465-798
T6 sequence (Q8TF76 whole entry): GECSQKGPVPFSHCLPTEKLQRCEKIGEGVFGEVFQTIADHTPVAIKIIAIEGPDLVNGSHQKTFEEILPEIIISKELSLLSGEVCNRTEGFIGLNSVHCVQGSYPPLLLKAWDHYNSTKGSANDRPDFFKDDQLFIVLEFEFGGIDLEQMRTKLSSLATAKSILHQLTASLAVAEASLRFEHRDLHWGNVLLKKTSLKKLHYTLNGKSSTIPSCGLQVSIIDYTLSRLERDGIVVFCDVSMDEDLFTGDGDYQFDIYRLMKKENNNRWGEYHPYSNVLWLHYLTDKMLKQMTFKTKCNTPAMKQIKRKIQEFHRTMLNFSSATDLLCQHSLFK
Experimental: as §1

[11] = target: T7, Serine/threonine-protein kinase 17A (Homo sapiens, UniProt Q9UEE5); experiment: Selectivity screening
T7 sequence (Q9UEE5 whole entry): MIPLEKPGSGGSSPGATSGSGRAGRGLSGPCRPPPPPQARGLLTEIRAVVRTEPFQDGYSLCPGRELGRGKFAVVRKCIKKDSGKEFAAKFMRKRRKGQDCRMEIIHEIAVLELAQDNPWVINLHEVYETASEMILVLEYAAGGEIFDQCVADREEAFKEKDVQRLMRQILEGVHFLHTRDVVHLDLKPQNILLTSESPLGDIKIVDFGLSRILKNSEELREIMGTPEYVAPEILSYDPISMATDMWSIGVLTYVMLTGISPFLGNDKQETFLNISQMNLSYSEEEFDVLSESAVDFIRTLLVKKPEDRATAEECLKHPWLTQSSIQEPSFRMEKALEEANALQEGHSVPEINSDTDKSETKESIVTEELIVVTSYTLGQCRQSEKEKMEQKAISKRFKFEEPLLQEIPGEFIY
Experimental: as §1

Misshapen-like kinase 1 = Misshapen-like kinase 1 (Homo sapiens, UniProt Q8N4C8); experiment: Selectivity screening
Chain of Misshapen-like kinase 1 (Q8N4C8 whole entry): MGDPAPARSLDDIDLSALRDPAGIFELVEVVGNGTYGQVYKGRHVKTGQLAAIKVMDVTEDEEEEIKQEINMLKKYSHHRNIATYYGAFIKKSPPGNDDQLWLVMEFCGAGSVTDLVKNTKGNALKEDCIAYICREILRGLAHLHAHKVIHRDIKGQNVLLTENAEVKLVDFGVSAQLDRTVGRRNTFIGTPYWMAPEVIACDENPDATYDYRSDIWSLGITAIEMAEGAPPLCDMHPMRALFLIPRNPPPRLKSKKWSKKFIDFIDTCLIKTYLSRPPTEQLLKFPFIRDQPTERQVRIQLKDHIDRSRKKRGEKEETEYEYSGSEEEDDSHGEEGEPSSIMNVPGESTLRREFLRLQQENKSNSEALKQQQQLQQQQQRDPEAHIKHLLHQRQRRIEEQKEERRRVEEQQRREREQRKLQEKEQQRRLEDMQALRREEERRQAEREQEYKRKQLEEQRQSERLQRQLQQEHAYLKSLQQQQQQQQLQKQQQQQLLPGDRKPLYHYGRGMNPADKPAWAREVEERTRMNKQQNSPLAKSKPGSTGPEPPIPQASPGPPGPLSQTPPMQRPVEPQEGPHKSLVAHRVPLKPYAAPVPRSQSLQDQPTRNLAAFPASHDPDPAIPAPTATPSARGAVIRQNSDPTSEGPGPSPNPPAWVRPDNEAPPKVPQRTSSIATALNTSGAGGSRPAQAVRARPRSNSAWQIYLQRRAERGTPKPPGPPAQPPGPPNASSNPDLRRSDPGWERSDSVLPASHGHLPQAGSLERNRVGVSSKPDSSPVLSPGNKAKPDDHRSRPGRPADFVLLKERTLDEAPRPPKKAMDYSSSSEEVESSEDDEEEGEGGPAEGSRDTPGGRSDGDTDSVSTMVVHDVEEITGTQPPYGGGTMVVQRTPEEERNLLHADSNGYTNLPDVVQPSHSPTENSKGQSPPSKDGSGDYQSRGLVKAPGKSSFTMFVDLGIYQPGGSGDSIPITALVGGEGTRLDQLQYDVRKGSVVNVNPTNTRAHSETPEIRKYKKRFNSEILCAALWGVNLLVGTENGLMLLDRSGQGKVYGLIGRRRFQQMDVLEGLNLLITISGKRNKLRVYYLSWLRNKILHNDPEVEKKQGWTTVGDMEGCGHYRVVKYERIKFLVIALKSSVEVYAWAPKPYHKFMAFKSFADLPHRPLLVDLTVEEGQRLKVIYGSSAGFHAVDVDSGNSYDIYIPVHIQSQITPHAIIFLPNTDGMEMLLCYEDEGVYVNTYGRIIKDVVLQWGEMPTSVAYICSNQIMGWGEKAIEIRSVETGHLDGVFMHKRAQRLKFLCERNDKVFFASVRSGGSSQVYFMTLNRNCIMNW
Experimental: as §1

[12] = target: Casein kinase II subunit alpha' (Homo sapiens, UniProt P19784); experiment: Selectivity screening
Chain of Casein kinase II subunit alpha' (P19784 whole entry): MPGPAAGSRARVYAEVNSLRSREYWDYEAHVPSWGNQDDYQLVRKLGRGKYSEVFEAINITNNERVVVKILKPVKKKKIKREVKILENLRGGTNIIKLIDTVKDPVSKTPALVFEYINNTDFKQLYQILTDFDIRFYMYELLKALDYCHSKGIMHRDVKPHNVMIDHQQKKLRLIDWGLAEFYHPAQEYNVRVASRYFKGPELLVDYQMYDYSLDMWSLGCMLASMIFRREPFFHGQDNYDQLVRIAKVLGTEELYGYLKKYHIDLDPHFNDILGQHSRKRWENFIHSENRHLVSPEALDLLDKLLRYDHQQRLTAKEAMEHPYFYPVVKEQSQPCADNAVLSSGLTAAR
Experimental: as §1

[13] = target: Mitogen-activated protein kinase kinase kinase kinase 4 (Homo sapiens, UniProt O95819); experiment: Selectivity screening
Chain of Mitogen-activated protein kinase kinase kinase kinase 4 (O95819 whole entry): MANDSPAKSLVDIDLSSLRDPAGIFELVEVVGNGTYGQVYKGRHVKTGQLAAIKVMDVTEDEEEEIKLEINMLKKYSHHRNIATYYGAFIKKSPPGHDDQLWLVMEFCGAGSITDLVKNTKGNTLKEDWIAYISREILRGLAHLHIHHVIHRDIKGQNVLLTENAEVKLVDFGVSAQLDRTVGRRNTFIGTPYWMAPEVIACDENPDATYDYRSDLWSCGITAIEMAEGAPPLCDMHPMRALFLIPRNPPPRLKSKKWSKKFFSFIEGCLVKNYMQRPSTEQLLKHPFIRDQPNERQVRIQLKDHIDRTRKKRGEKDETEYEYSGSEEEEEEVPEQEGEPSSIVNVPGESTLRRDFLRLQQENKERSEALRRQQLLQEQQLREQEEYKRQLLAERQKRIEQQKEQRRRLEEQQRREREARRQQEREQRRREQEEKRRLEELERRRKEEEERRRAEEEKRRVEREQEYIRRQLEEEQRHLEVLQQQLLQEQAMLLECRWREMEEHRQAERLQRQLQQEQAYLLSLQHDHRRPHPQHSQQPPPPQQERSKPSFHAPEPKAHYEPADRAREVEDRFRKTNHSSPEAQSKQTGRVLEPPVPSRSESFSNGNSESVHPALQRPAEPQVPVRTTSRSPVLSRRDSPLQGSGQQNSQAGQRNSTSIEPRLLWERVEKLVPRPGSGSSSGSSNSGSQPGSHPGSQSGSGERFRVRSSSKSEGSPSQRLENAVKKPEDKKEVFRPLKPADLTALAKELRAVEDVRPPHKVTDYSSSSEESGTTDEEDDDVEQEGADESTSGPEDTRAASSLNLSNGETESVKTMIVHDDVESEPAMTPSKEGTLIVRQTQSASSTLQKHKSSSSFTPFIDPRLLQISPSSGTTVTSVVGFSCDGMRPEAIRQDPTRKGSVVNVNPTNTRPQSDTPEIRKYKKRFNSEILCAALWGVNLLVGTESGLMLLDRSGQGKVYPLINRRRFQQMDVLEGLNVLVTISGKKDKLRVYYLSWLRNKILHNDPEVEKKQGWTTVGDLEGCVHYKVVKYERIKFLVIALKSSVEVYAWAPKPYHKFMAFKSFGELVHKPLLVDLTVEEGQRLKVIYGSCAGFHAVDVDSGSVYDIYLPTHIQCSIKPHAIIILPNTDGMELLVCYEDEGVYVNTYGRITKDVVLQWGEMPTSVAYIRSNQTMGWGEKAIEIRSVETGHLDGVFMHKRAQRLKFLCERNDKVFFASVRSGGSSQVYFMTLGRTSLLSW
Experimental: as §1

Aurora kinase C = target: T8, Aurora kinase C (Homo sapiens, UniProt Q9UQB9); experiment: Selectivity screening
T8 sequence (Q9UQB9 whole entry): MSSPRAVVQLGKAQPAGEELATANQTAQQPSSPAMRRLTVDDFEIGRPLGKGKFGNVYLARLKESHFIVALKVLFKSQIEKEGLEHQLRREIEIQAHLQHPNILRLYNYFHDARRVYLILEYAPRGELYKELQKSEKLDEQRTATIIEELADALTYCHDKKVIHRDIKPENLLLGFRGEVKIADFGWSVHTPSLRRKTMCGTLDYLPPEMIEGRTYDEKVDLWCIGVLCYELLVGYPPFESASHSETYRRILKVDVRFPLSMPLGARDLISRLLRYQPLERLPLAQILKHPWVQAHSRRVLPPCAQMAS
Experimental: as §1

[14] = target: T2, Mitogen-activated protein kinase 3; experiment: ITC; details: pH 7.5; 15 °C
Experimental: (§2) For ERK1 and ERK2, the buffer contained 20 mM HEPES (pH 7.5), 150 mM NaCl and 0.5 mM TCEP. For haspin, the buffer contained 20 mM HEPES (pH 7.5), 250 mM NaCl and 0.5 mM TCEP. Titration was performed at 15 °C by injecting 100 µM protein into a reaction cell containing the inhibitors (7 µM).

[15] = target: T6, Serine/threonine-protein kinase haspin [465-798]; experiment: ITC; details: pH 7.5; 15 °C
Experimental: as §2

Chain of Mitogen-activated protein kinase 9 (P45984 whole entry): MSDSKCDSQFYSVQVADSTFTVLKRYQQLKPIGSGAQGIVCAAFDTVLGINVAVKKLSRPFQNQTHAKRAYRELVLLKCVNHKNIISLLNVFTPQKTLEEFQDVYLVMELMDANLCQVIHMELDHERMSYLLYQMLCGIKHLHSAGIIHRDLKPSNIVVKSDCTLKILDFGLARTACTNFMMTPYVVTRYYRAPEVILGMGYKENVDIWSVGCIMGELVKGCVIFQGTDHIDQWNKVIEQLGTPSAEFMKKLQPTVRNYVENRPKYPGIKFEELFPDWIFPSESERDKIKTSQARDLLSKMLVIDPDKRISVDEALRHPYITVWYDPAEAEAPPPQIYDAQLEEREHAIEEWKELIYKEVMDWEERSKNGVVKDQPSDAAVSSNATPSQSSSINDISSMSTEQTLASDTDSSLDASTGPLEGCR

IC50 [1]: 104 nM | IC50 [2]: 783 nM | IC50 [3]: 535 nM | IC50 [4]: 8.3 nM | IC50 [5]: 193 nM | IC50 [6]: 1080 nM | IC50 [7]: 304 nM | IC50 [8]: 632 nM | IC50 [9]: 508 nM | IC50 [10]: 398 nM | IC50 [11]: 114 nM | IC50 (Misshapen-like kinase 1): 942 nM | IC50 [12]: > 10000 nM | IC50 [13]: 503 nM | IC50 (Aurora kinase C): 580 nM | Kd [14]: 213 nM | Kd [15]: 297 nM
SMILES: O=C(Nc1ccc2[nH]nc(-c3ccncc3)c2c1)[C@H]1CCN(CC(=O)N2CCN(c3ccc(-c4ncccn4)cc3)CC2)C1 [SCH772984]
